The record followed here is patent US20110262490A1, “POLYMER-AGENT CONJUGATES, PARTICLES, COMPOSITIONS, AND RELATED METHODS OF USE” (priority 2009, published 2011).

Data set [1] deals with murine melanoma tumor. As to the kind of experiment: Efficacy and survival in aggressive murine melanoma model at MTD (Example 92). The class given is in vivo, mouse. The settings on record: every other week dosing at MTD. As to the method:
Thus, the sustained release properties of a particle according to exemplary particle 1 supports less frequent dosing of patients. Methods: Tumor-bearing mice were injected with a particle according to exemplary particle 1 or docetaxel at their respective MTD. See, for example, FIGS. 6a and 6b.

Data set [2] has as its system SK-OV-3 tumor. The experiment in a line: In vivo efficacy in SK-OV-3 ovarian human xenograft model (Example 45). Also on record: species or system mouse. As to the method: SK-OV-3 cells were grown in culture to confluency in RPMI medium containing 10% FBS and 1% penicillin/streptomycin and then resuspended in RPMI (passage 4) for implantation into mice. This suspension of SK-OV-3 cells (density=30×10^6 cells/mL) was implanted into the mammary gland of female CD-1 nude mice on Day 1. […]
(In general: A xenograft is tissue or cells of one species grown in another, often human tumour cells in immunodeficient mice.)

For `CC(=O)O[C@@]12CO[C@@H]1C[C@H](O)[C@@]1(C)C(=O)[C@H](O)C3=C(C)[C@@H](OC(=O)[C@H](O)[C@@H](NC(=O)OC(C)(C)C)c4ccccc4)C[C@@](O)([C@@H](OC(=O)c4ccccc4)[C@H]21)C3(C)C` [Free docetaxel, docetaxel], in data set [1], the Tumor growth suppression entry is given as “not sufficient to suppress tumor growth”. Moreover, the “Tumor growth delay (TGD)” value in data set [2] (15 mg/kg IV weekly×2) stood at 18 days. Further, in data set [2] (30 mg/kg IV weekly×2), the Ataxia result is on record as “did not cause ataxia”, the “Maximum body weight loss” value is listed as 13% and the “Tumor growth delay (TGD)” value is recorded as 42 days. Further, in data set [2] (60 mg/kg IV weekly×2), the Body weight loss entry is recorded as “greater than 20%”.
